Test results: publication PMC10534422, “Divergence in Glyphosate Susceptibility between Steinchisma laxum Populations Involves a Pro106Ser Mutation” (Plants, 2023)
Like-named read-outs stand apart in the source and are kept apart here.

Columns and labels:
[1] = tested on: T1, EPSPS (5-enolpyruvylshikimate-3-phosphate synthase); experiment: EPSPS activity by phosphate release (EnzChek Phosphate Assay), leaf extract; assay type: biochemical, Steinchisma laxum; details: R population (Pro106Ser found in R plants); glyphosate 0-1000 µM; stated gain; read-out: I50
T1 construct: native enzyme extracted from leaf tissue, not purified to homogeneity, activity per total soluble protein

[2] = tested on: T1, EPSPS (5-enolpyruvylshikimate-3-phosphate synthase); experiment: as above; assay type: biochemical, Steinchisma laxum; details: S population; glyphosate 0-1000 µM; read-out: I50

How did the IC50 [1] turn out when `O=C(O)CNCP(=O)(O)O` [glyphosate, N-(phosphonomethyl) glycine] was run?
The IC50 was 14.7 µM.

And the IC50 [2]?
The IC50 was 980 nM.
